According to ChEMBL document CHEMBL1139310, “Lead identification to generate 3-cyanoquinoline inhibitors of insulin-like growth factor receptor (IGF-1R) for potential use in cancer treatment” (Bioorg Med Chem Lett, 2009):
Values after ≈ are worked out from the molar mass of the structure shown.

System: not listed separately
Experiment: Selectivity ratio of IC50 for GST-IR to IC50 for GST-IGF1R

Ratio IC50 | Compound
0.17 | CCN1CCN(CCCOc2cc3ncc(C#N)c(Nc4ccc(Sc5nc(C)c(C)n5CC)c(Cl)c4)c3cc2OC)CC1

Biological target: Insulin-like growth factor 1 receptor (Homo sapiens, UniProt P08069)
Sequence (P08069 31-736 limits assumed): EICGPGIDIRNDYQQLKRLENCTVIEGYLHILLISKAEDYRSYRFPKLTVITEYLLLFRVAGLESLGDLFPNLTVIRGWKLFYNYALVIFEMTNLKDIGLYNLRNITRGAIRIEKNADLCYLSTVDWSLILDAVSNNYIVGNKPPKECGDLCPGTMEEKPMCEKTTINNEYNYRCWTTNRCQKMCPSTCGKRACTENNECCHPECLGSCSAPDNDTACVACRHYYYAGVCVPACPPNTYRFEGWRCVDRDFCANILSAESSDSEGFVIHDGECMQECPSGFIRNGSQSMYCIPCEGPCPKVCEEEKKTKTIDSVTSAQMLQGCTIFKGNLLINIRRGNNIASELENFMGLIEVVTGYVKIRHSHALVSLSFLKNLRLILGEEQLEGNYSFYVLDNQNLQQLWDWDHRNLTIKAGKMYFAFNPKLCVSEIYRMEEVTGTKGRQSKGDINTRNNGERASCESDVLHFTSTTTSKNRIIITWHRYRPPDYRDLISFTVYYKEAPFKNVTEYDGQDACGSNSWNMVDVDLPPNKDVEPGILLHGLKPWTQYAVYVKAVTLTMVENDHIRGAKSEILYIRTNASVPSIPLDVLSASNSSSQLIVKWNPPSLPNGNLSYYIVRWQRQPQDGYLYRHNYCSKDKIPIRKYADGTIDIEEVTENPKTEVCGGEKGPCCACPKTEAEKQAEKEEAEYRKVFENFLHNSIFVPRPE
Sequence (P08069 741-1367 limits assumed): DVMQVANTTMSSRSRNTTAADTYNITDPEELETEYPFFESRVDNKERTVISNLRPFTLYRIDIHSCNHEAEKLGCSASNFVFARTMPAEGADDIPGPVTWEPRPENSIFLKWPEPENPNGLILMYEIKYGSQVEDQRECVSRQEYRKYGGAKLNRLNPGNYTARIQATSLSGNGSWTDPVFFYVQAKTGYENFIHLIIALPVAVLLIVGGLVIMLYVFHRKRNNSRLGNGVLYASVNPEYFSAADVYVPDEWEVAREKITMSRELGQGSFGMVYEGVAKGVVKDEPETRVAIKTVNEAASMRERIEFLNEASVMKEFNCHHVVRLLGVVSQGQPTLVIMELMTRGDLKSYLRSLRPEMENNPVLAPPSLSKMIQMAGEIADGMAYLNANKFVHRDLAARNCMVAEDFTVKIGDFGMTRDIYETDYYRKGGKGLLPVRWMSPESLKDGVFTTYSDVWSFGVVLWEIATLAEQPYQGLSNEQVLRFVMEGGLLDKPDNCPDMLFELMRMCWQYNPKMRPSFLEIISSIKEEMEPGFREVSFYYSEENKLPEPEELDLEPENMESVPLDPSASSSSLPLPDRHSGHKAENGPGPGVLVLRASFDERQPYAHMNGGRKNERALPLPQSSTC
Experiment: Inhibition of GST-IGF1R

Compound | IC50 [nM]
COc1cc2c(Nc3ccc(Sc4nccn4C)c(Cl)c3)c(C#N)cnc2cc1N(C)CCCN(C)C | 150
COc1cc2c(Nc3ccc(Sc4nccn4C)c(Cl)c3)c(C#N)cnc2cc1NCCCN(C)C | 151
COc1cc2c(Nc3ccc(Sc4ccccc4O)cc3)c(C#N)cnc2cc1OCCCN1CCOCC1 | 1090
CCC1CCCCN1CCCOc1cc2ncc(C#N)c(Nc3ccc(Sc4nc(C)c(C)n4CC)c(Cl)c3)c2cc1OC (stereo not given) | 32
COc1cc2c(Nc3ccc(Sc4ccccn4)c(Cl)c3)c(C#N)cnc2cc1OCCCN1CCOCC1 | > 10000
CCC(=O)C1CCN(CCCOc2cc3ncc(C#N)c(Nc4ccc(Sc5nc(C)c(C)n5CC)c(Cl)c4)c3cc2OC)CC1 | 135
CCNC(=O)N1CCN(CCCOc2cc3ncc(C#N)c(Nc4ccc(Sc5nc(C)c(C)n5CC)c(Cl)c4)c3cc2OC)CC1 | 45
COc1cc2c(Nc3ccc(Sc4nccn4C)c(Cl)c3)c(C#N)cnc2cc1OCCCN1CCOCC1 | 66
COc1cc2c(Nc3ccc(Sc4nccn4C)c(Cl)c3)c(C#N)cnc2cc1N1CCN(C)CC1 | 600
CCn1c(Sc2ccc(Nc3c(C#N)cnc4cc(NCCCc5ccccc5)c(OC)cc34)cc2Cl)nc(C)c1C | 13700
COc1cc2c(Nc3ccc(Sc4nccn4C)cc3)c(C#N)cnc2cc1OCCCN1CCOCC1 | 1000
CCn1c(Sc2ccc(Nc3c(C#N)cnc4cc(OCCCNS(C)(=O)=O)c(OC)cc34)cc2Cl)nc(C)c1C | 31

Stronger by IC50, values ahead:

IC50 [nM] | Compound
26 | CCn1c(Sc2ccc(Nc3c(C#N)cnc4cc(NCCCN(CCO)CCO)c(OC)cc34)cc2Cl)nc(C)c1C
20 | CCn1c(Sc2ccc(Nc3c(C#N)cnc4cc(NCCCN5CCOCC5)c(OC)cc34)cc2Br)nc(C)c1C
17 | CCOC(=O)NN1CCN(CCCOc2cc3ncc(C#N)c(Nc4ccc(Sc5nc(C)c(C)n5CC)c(Cl)c4)c3cc2OC)CC1
16 | CCn1c(Sc2ccc(Nc3c(C#N)cnc4cc(NCCCN5CCN(C)CC5)c(OC)cc34)cc2Cl)nc(C)c1C
15 | CCn1c(Sc2ccc(Nc3c(C#N)cnc4cc(OCCCN5CCOCC5)c(OC)cc34)cc2Cl)nc(C)c1C
9 | CCN1CCN(CCCOc2cc3ncc(C#N)c(Nc4ccc(Sc5nc(C)c(C)n5CC)c(Cl)c4)c3cc2OC)CC1

System: not listed separately
Experiment: Aqueous solubility at pH 7.4
Format: physicochemical

solubility [µg/mL] | Compound
2000 (≈ 3.15 mM) | CCN1CCN(CCCOc2cc3ncc(C#N)c(Nc4ccc(Sc5nc(C)c(C)n5CC)c(Cl)c4)c3cc2OC)CC1
